Results reported in patent US8232319B2, “Amino phosphate derivative and S1P receptor modulator having same as an active ingredient” (Kyorin Pharmaceutical Co., Ltd., priority 2006, dated 2012).
pEC50: −log10 of the molar value.

How the values were obtained:
Type in all cases: cell-based
Conditions in all cases: Fluo 3, 100% = S1P at 10^-6 M
human S1P1 receptor = molecular target: T1, human S1P1 receptor (Homo sapiens, UniProt P21453); experiment: Intracellular calcium mobilization induced test, hS1P1 receptors expressing CHO-K1 cells
T1 construct: expressed in transfected cells; host or cells: CHO-K1
Protocol: (§1) Intracellular Calcium Mobilization Induced Test of a Subject Compound Against Human S1P (sphingosine-1-phosphate) Receptor-expressing Cells
(§2) Human S1P receptors expressing CHO-K1 cells (hS1P1 receptors expressing CHO-K1 cells, hS1P3 receptors expressing CHO-K1 cells, and hS1P4 receptors expressing CHO-K1 cells), were maintained in Ham's F-12 medium containing 10% fetal bovine serum and 400 μg/mL Geneticin. Into a black, clear bottom, culture plate (BD Falcon) with 96 wells, 7×10^4 cells/well of the hS1P1 and hS1P3 receptors expressing CHO-K1 cells were plated, and […] of the hS1P4 receptors expressing CHO-K1 cells were plated. The cells were incubated overnight at 37° C. at 5% CO2. The medium in the wells were removed by suction. A loading buffer included in a Calcium Kit-Fluo 3 reagent (Dojindo Laboratories) was added as a fluorescent Ca^2+-binding indicator. The cells were incubated for 80 minutes at 37° C. at 5% CO2. After the incubation, the wells were washed with PBS. A recording buffer included in a Calcium Kit-Fluo 3 reagent was added, and the cells were incubated for 20 minutes at 37° C. at 5% CO2. Using a microplate spectrophotofluorometer (FLEX Station, Molecular Devices), the fluorescence intensity at an excitation wavelength of 485 nm and a detection wavelength of 525 nm was measured. S1P and the subject compound prepared in medium so that the concentration was 10-fold that of the final concentration (final DMSO concentration of 0.1%). The solution was added 18 seconds after the fluorescence measurement was started, and then fluorescence intensity was continuously measured every 1.5 seconds until 100 seconds after addition. A value (fluorescence increase) obtained by subtracting the minimum fluorescence intensity from the maximum fluorescence intensity was calculated from the measurement data. Taking the difference between the fluorescence increase when the solvent was added and the fluorescence increase when the S1P was allowed to act at 10^−6 M as 100%, the fluorescence increase ratio (%) of the subject compound was calculated. Taking this value as the intracellular calcium mobilization induced activity of the subject compound, the EC50 value was determined using PRISM software (GraphPad). In Table 1, 10 nmol/L>EC50 value ≧1 nmol/L is indicated as a +, and 1 nmol/L>EC50 value is indicated as a ++.

human S1P3 receptor = molecular target: T2, human S1P3 receptor (Homo sapiens, UniProt Q99500); experiment: Intracellular calcium mobilization induced test, hS1P3 receptors expressing CHO-K1 cells
T2 construct: expressed in transfected cells; host or cells: CHO-K1
Protocol: as §1, §2

human S1P4 receptor = molecular target: T3, human S1P4 receptor (Homo sapiens, UniProt O95977); experiment: Intracellular calcium mobilization induced test, hS1P4 receptors expressing CHO-K1 cells
T3 construct: expressed in transfected cells; host or cells: CHO-K1
T3 sequence (O95977 1-384): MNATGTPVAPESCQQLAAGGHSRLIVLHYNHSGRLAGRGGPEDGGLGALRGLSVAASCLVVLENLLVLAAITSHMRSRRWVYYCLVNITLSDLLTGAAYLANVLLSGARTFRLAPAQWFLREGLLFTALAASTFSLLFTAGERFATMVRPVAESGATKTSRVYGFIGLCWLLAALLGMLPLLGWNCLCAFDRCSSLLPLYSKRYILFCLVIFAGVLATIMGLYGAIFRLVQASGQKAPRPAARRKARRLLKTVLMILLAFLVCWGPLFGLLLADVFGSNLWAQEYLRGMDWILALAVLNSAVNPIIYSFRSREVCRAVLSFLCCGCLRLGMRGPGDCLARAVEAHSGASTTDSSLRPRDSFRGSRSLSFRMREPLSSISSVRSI
Protocol: as §1, §2

T1 sequence (P21453 whole entry): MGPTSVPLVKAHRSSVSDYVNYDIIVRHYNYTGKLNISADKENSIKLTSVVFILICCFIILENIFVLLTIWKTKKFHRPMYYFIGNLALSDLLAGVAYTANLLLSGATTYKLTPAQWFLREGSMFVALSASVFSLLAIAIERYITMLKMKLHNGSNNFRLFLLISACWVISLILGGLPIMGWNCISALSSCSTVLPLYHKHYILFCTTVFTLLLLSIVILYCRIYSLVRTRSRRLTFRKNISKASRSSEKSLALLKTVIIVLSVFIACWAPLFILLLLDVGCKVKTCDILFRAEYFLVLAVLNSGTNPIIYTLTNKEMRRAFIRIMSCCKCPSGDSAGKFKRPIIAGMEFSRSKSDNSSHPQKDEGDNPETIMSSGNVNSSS
T2 sequence (Q99500 whole entry): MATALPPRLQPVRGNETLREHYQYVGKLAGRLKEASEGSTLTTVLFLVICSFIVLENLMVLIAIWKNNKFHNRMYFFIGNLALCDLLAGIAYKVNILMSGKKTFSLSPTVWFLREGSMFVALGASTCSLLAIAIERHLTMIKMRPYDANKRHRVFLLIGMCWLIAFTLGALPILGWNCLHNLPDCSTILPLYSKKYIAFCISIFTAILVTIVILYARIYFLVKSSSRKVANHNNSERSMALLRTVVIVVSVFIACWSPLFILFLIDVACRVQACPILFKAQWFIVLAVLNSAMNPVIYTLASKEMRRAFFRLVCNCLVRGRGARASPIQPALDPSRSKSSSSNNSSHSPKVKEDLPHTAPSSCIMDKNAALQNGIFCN

SMILES | pEC50 (human S1P1 receptor) | pEC50 (human S1P3 receptor) | pEC50 (human S1P4 receptor)
C[C@@](N)(CCCc1ccc(Sc2cccc(C(F)(F)F)c2)cc1Cl)COP(=O)(O)O [Example 41, (R)-2-amino-5-[2-chloro-4-(3-trifluoromethylphenylthio)phenyl]-2-methylpentyl phosphoric acid monoester] | > 9.00 | < 5.00 | 8.00 to 9.00
C[C@@](N)(CCc1ccc(Sc2cccc(C(F)(F)F)c2)cc1Cl)COP(=O)(O)O [Example 43] | > 9.00 | < 5.00 | 8.00 to 9.00
Cc1cccc(Oc2ccc(CCC[C@@](C)(N)COP(=O)(O)O)c(Cl)c2)c1 [Example 45, (R)-2-amino-5-[2-chloro-4-(3-methylphenoxy)phenyl]-2-methylpentyl phosphonic acid monoester] | > 9.00 | < 5.00 | 8.00 to 9.00
C[C@@](N)(CCCc1ccc(Sc2cccc(Cl)c2)cc1Cl)COP(=O)(O)O [Example 48, (R)-2-amino-5-[2-chloro-4-(3-chlorophenylthio)phenyl]-2-methylpentyl phosphonic acid monoester] | 8.00 to 9.00 | < 5.00 | > 9.00
CCC[C@@](N)(CCCc1ccc(Sc2cccc(C(F)(F)F)c2)cc1Cl)COP(=O)(O)O [Example 50, (R)-2-amino-5-[2-chloro-4-(3-trifluoromethylphenylthio)phenyl]-2-propylpentyl phosphonic acid monoester] | > 9.00 | < 5.00 | 8.00 to 9.00
C[C@@](N)(CCCc1ccc(Sc2cccc(C(F)F)c2)cc1Cl)COP(=O)(O)O [Example 51, (R)-2-amino-5-[2-chloro-4-(3-difluoromethylphenylthio)phenyl]-2-methylpentyl phosphonic acid monoester] | 8.00 to 9.00 | < 5.00 | 8.00 to 9.00

Second part, the molecule after the results:

pEC50 (human S1P1 receptor) | pEC50 (human S1P3 receptor) | pEC50 (human S1P4 receptor) | SMILES
> 9.00 | < 5.00 | 8.00 to 9.00 | C[C@@](N)(CCCc1ccc(Oc2cccc(C(F)(F)F)c2)cc1Cl)COP(=O)(O)O [Example 40, (R)-2-amino-5-[2-chloro-4-(3-trifluoromethylphenoxy)phenyl]-2-methylpentyl phosphoric acid monoester]
> 9.00 | < 5.00 | 8.00 to 9.00 | C[C@@](N)(CCc1ccc(Oc2cccc(C(F)(F)F)c2)cc1Cl)COP(=O)(O)O [Example 42, (R)-2-amino-4-[2-chloro-4-(3-trifluoromethylphenoxy)phenyl]-2-methylbutyl phosphoric acid monoester]
> 9.00 | < 5.00 | 8.00 to 9.00 | CCc1cccc(Sc2ccc(CC[C@@](C)(N)COP(=O)(O)O)c(Cl)c2)c1 [Example 44, (R)-2-amino-4-[2-chloro-4-(3-ethylphenylthio)phenyl]-2-methylbutyl phosphonic acid monoester]
> 9.00 | < 5.00 | 8.00 to 9.00 | CCc1cccc(Sc2ccc(CCC[C@@](C)(N)COP(=O)(O)O)c(Cl)c2)c1 [Example 46, (R)-2-amino-5-[2-chloro-4-(3-ethylphenylthio)phenyl]-2-methylpentyl phosphonic acid monoester]
> 9.00 | < 5.00 | 8.00 to 9.00 | CCCc1cccc(Oc2ccc(CCC[C@@](C)(N)COP(=O)(O)O)c(Cl)c2)c1 [Example 47, (R)-2-amino-5-[2-chloro-4-(3-propylphenoxy)phenyl]-2-methylpentyl phosphonic acid monoester]
> 9.00 | < 5.00 | 8.00 to 9.00 | C[C@@](N)(CCCc1ccc(Sc2cccc(C(F)(F)F)c2)cc1F)COP(=O)(O)O [Example 49, (R)-2-amino-5-[2-fluoro-4-(3-trifluoromethylphenylthio)phenyl]-2-methylpentyl phosphonic acid monoester]
